In ChEMBL document CHEMBL6092176, “Discovery of pyrazolo[1,5-a]pyrimidine derivatives targeting TLR4-TLR4∗ homodimerization via AI-powered next-generation screening” (Eur J Med Chem, 2024):
Where “and” joins values, the source holds several entries; their conditions need not be identical. Equal entries are not always repeated. Calls of active or inactive are those of the source. No cut-off for these calls is given here.

Tests used:
[1] = target: T1, Toll-like receptor 4 (Homo sapiens, UniProt O00206); experiment: Inhibition of human TLR4 in LPS-stimulated HEK-Blue hTLR4 cells assessed as reduction in SEAP activity incubated for 24 hrs by microplate reader assay; format: cell-based
[2] = Cytotoxicity against HEK-Blue hTLR4 cells incubated for 24 hrs by CCK8 assay; format: toxicity, cell-based; details: human
[3] = Inhibition of TLR4 to MD2 (unknown origin) protein-protein interaction; set-up: species or system Homo sapiens
[4] = tested on: Mus musculus; experiment: Antiinflammatory activity in LPS-induced C57BL/6 mouse sepsis model assessed as reduction in TNFalpha mRNA expression at 5 mg/kg, ip preadministered with compound for 1 hr followed by LPS stimulation and measured after 15 hrs by RT-qPCR analysis; format: functional, organism-based; details: time 16.0 hrs
[5] = Half-life in C57BL/6 mouse at 10 mg/kg, ip measured upto 24 hrs; format: ADME, organism-based; details: in vivo
[6] = Tmax in C57BL/6 mouse at 10 mg/kg, ip measured upto 24 hrs; format: ADME, organism-based; details: in vivo
[7] = Cmax in C57BL/6 mouse at 10 mg/kg, ip measured upto 24 hrs; format: ADME, organism-based; details: in vivo
[8] = AUC(0 to t) in C57BL/6 mouse at 10 mg/kg, ip measured upto 24 hrs; format: ADME, organism-based; details: in vivo
[9] = MRT(0 to t) in C57BL/6 mouse at 10 mg/kg, ip measured upto 24 hrs; format: ADME, organism-based; details: in vivo
[10] = Apparent volume of distribution in C57BL/6 mouse at 10 mg/kg, ip measured upto 24 hrs; format: ADME, organism-based; details: in vivo
[11] = Clearance in C57BL/6 mouse at 10 mg/kg, ip measured upto 24 hrs; format: ADME, organism-based; details: in vivo
[12] = tested on: Mus musculus; experiment: Antiinflammatory activity in LPS-induced C57BL/6 mouse sepsis model assessed as survival rate at 10 mg/kg, ip preadministered with compound for 1 hr followed by LPS stimulation and measured after 24 hrs; format: functional; details: time 25 hrs
[13] = target: T1, Toll-like receptor 4; experiment: Inhibition of TLR4 (unknown origin) homodimerization

T1 sequence (O00206 whole entry): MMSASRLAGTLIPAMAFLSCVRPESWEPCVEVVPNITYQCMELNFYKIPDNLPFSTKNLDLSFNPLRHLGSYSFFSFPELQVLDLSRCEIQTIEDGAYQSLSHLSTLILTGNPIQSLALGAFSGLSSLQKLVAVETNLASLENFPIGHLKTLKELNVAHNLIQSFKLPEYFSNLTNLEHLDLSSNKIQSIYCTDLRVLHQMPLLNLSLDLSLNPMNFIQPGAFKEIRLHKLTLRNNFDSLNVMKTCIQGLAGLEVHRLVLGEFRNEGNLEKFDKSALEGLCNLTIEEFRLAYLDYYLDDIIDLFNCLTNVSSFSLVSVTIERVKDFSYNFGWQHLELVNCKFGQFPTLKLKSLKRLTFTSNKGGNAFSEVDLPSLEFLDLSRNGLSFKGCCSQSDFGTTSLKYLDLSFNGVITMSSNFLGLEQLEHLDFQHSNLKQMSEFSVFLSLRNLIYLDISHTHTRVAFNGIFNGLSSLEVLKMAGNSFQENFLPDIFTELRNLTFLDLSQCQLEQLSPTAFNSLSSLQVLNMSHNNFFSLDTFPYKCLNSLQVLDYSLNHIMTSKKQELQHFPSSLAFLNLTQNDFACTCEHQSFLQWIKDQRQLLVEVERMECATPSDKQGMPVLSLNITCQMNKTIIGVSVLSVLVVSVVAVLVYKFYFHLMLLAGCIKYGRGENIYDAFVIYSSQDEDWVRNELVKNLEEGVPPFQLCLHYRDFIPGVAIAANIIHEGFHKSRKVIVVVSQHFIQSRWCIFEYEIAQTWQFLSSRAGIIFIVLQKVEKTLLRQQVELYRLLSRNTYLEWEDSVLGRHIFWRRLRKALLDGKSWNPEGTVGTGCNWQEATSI

Row | Compound | IC50 [1] | IC50 at 24 h [2] [µM] | other results
1 | O=C(c1cnn2c(C(F)F)cc(-c3ccc(Cl)cc3)nc12)N1CCC2(CCCCC2)CC1 | > 50 µM | > 50 | –
2 | O=C(Nc1ccc(S(=O)(=O)NC2CC2)cc1)c1cnn2c(C(F)F)cc(-c3ccc(Cl)cc3)nc12 | 10.5 µM | > 50 | –
3 | CCOc1ccc(OCC(O)CN(C)Cc2c(C)nn(Cc3ccccc3Cl)c2C)cc1 (stereo not drawn) | – | – | IC50 [3]: 48.1 µM
4 | O=C(c1cnn2c(O)cc(-c3ccc(Cl)cc3)nc12)N1CCC2(CC1)OCCO2 | > 50 µM | > 50 | –
5 | C[C@@H]1C[C@H]2[C@@H]3CCC4=CC(=O)C=C[C@]4(C)[C@@]3(F)[C@@H](O)C[C@]2(C)[C@@]1(O)C(=O)CO | – | – | Activity [4]: inactive
6 | O=C(c1cnn2c(C(F)F)cc(-c3ccc(Cl)cc3)nc12)N1C[C@H]2CCCC[C@H]2C1 | – | – | t1/2 [5]: 2.74 h; Tmax [6]: 0.333 h; Cmax [7]: 760 ng/mL; AUCt [8]: 1560 ng·h/mL; MRT last at 24 h [9]: 2.55 h; Vz [10]: 25.4 L/kg; CL [11]: 107 mL/min/kg; survival at 10 mg/kg [12]: 60%
7 | CN1CCN(C(=O)c2cnn3c(C(F)F)cc(-c4ccc(Cl)cc4)nc23)CC1 | 30.6 µM | > 50 | –
8 | CC(=O)N1CCN(C(=O)c2cnn3c(C(F)F)cc(-c4ccc(Cl)cc4)nc23)CC1 | > 50 µM | > 50 | –
9 | FC(F)c1cc(-c2ccc(Cl)cc2)nc2cc(C(=S)N3C[C@H]4CCCC[C@H]4C3)nn12 | > 50 µM | > 50 | –
10 | O=C(c1cnn2c(C(F)F)cc(-c3ccc(Br)cc3)nc12)N1CCC2(CC1)OCCO2 | > 50 µM | > 50 | –
11 | CCOC(=O)C1=CCCC[C@H]1S(=O)(=O)Nc1ccc(F)cc1Cl [RESATORVID] | 0.047 µM and 0.06 µM | > 50 | –
12 | CC(C)(C)OC(=O)NC1CCN(C(=O)c2cnn3c(C(F)F)cc(-c4ccc(Cl)cc4)nc23)CC1 | 24 µM | 45.9 | –
13 | O=C(c1cnn2c1NC(c1ccc(Cl)cc1)CC2C(F)F)N1C[C@H]2CCCC[C@H]2C1 (stereo partly drawn) | > 50 µM | > 50 | –
14 | COc1ccc(-c2cc(C(F)F)n3ncc(C(=O)N4CCC5(CC4)OCCO5)c3n2)cc1OC | > 50 µM | > 50 | –
15 | O=C(c1cnn2c(C(F)F)cc(C34CC5CC(CC(C5)C3)C4)nc12)N1C[C@H]2CCCC[C@H]2C1 | > 50 µM | > 50 | –
16 | O=C(c1cnn2c(C(F)F)cc(-c3ccc(Cl)cc3)nc12)N1CCSCC1 | > 50 µM | > 50 | –
17 | O=C(c1cnn2c(C(F)F)cc(-c3ccc(F)cc3)nc12)N1CCC2(CC1)OCCO2 | > 50 µM | > 50 | –
18 | NC1CCN(C(=O)c2cnn3c(C(F)F)cc(-c4ccc(Cl)cc4)nc23)CC1 | > 50 µM | > 50 | –
19 | FC(F)c1cc(-c2ccc(Cl)cc2)nc2c(C(=S)N3C[C@H]4CCCC[C@H]4C3)cnn12 | > 50 µM | > 50 | –
20 | O=C(c1cnn2c(C(F)F)cc(-c3ccc(Cl)cc3)nc12)N1CCC2(CC1)OCCO2 | 4.94 µM | > 50 | –
21 | Cc1ccc(-c2cc(C(F)(F)F)n3ncc(C(=O)N4CCC5(CC4)OCCO5)c3n2)cc1 | > 50 µM | > 50 | –
22 | O=C(Oc1ccnc2c(Br)cccc12)c1cnn2c(C(F)F)cc(-c3ccc(Cl)cc3)nc12 | 15.5 µM | > 50 | –
23 | O=C(c1cnn2c(C(F)(F)F)cc(-c3ccc(Cl)cc3)nc12)N1CCC2(CC1)OCCO2 | > 50 µM | > 50 | –
24 | CC(C)(C)OC(=O)N1CCN(C(=O)c2cnn3c(C(F)F)cc(-c4ccc(Cl)cc4)nc23)CC1 | > 50 µM | > 50 | –
25 | O=C(c1cnn2c(C(F)F)cc(-c3ccc(Cl)cn3)nc12)N1C[C@H]2CCCC[C@H]2C1 | 11.8 µM | > 50 | –
26 | Cc1ccc(-c2cc(C(F)F)n3ncc(C(=O)N4CCC5(CC4)OCCO5)c3n2)cc1 | 14 µM | > 50 | IC50 [13]: 14 µM
27 | Cc1nn(Cc2ccccc2Cl)c(C)c1CN(C)CC(O)COc1ccc(Cl)cc1 (stereo not drawn) | – | – | IC50 [3]: 18.7 µM
